11 molecules from patent publication US20250129070A1, “BIFUNCTIONAL ANDROGEN RECEPTOR COMPOUNDS” (priority 2023, published 2025) can be followed below.

The subject of one experiment is AR / CBP ternary complex. The experiment can be described thus: Ternary complex formation assay (sandwich ELISA, AR capture / CBP detection) in VCaP cell lysates. The experiment is classed as cell-based. As to conditions: 1.5 hours treatment, sandwich ELISA (AR capture, CBP or p300 detection). The essentials:
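VCaP cells (50K/well, 5% charcoal-stripped FBS, ≥3 days) treated with bifunctional compound for 1.5 h, then lysed 30 min at 4 °C. AR captured on anti-AR (AR 441) plates; bound CBP or p300 detected by rabbit mAb plus HRP secondary. QuantaRed chemifluorescence read at ex 570/em 585, immediately and at 5 and 15 min.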
Background: ELISA stands for enzyme-linked immunosorbent assay.

In a further experiment the test system is VCaP cells. The experiment can be described thus: VCaP growth inhibition assay. The class given is cell-based. Conditions: 30 pM R1881, 9 days, CTG. The gist of the method: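 VCaP cells in phenol red-free DMEM/5% CSS, pre-incubated 72 h, then stimulated with R1881 (final 30 pM) and treated with 1:5 serial dilutions (final 100 nM to 10 fM) for 9 days at 37 °C. Viability by CellTiter-Glo luminescence; IC50 from 4-parameter logistic fit of RLU vs concentration.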

Molecules are shown by their SMILES. A value given as a limit tells only on which side of the number the result lay.

For orientation: EC50 means the midpoint of the concentration-response curve. A low value points to greater potency. What is called IC50 is the point on the concentration scale where inhibition reaches its midpoint. Lower therefore signals inhibition by little substance. `COc1cc(OC2C(C)(C)C(NC(=O)c3ccc(N4CCC(CCn5cc(-c6cc7cccc(-c8nn(C9CCOCC9)c9c8CN(C(C)=O)CC9)c7cn6)cn5)CC4)cc3)C2(C)C)ccc1C#N` (stereo not shown) [Compound 244, 4-[4-[2-[4-[8-(5-acetyl-1-tetrahydropyran-4-yl-6,7-dihydro-4H-pyrazolo[4,3-c]pyridin-3-yl)-3-isoquinolyl]pyrazol-1-yl]ethyl]-1-piperidyl]-N-[3-(4-cyano-3-methoxy-phenoxy)-2,2,4,4-tetramethyl-cyclobutyl]benzamide] had an EC50 in the experiment with AR / CBP ternary complex of 1 to 10 nM. Also, the concentration for half-maximal inhibition (IC50) in the experiment with VCaP cells was 0.1 to 1 nM.

`COc1cc(OC2C(C)(C)C(NC(=O)c3ccc(N4CC5(CCC(N6CCC(n7nc(N8CCCc9cc(C#N)c(C)cc98)c8c7CCN(C(C)=O)C8)CC6)CC5)C4)cc3)C2(C)C)ccc1C#N` (stereo not shown) [Compound 455, 4-[7-[4-[5-acetyl-3-(6-cyano-7-methyl-3,4-dihydro-2H-quinolin-1-yl)-6,7-dihydro-4H-pyrazolo[4,3-c]pyridin-1-yl]-1-piperidyl]-2-azaspiro[3.5]nonan-2-yl]-N-[3-(4-cyano-3-methoxy-phenoxy)-2,2,4,4-tetramethyl-cyclobutyl]benzamide]: the EC50 in the experiment with AR / CBP ternary complex is under 1 nM. The molecule further returned an IC50 in the experiment with VCaP cells of 0.1 to 1 nM.

As for `CC(=O)N1CCc2c(c(N3CCCc4cc(-c5cnn(C)c5)c(C(F)F)cc43)nn2C2CCN(Cc3cn(Cc4ncc(C(=O)NC5C(C)(C)C(Oc6ccc(C#N)c(Cl)c6)C5(C)C)cn4)nn3)CC2)C1` (stereo not shown) [Compound 188, 2-[[4-[[4-[5-acetyl-3-[7-(difluoromethyl)-6-(1-methylpyrazol-4-yl)-3,4-dihydro-2H-quinolin-1-yl]-6,7-dihydro-4H-pyrazolo[4,3-c]pyridin-1-yl]-1-piperidyl]methyl]triazol-1-yl]methyl]-N-[3-(3-chloro-4-cyano-phenoxy)-2,2,4,4-tetramethyl-cyclobutyl]pyrimidine-5-carboxamide], in the experiment with AR / CBP ternary complex, the EC50 is under 1 nM. In the experiment with VCaP cells, this molecule came in with an IC50 of at most 0.1 nM.

In the experiment on AR / CBP ternary complex, `CC(=O)N1CCc2c(c(N3CCCc4cc(-c5cnn(C)c5)c(C)cc43)nn2C2CCN(C3CCC4(CC3)CN(c3ncc(C(=O)NC5C(C)(C)C(Oc6ccc(C#N)c(C)c6C)C5(C)C)cn3)C4)CC2)C1` (stereo not shown) [Compound 472, 2-[7-[4-[5-acetyl-3-[7-methyl-6-(1-methylpyrazol-4-yl)-3,4-dihydro-2H-quinolin-1-yl]-6,7-dihydro-4H-pyrazolo[4,3-c]pyridin-1-yl]-1-piperidyl]-2-azaspiro[3.5]nonan-2-yl]-N-[3-(4-cyano-2,3-dimethyl-phenoxy)-2,2,4,4-tetramethyl-cyclobutyl]pyrimidine-5-carboxamide] displayed a concentration giving a half-maximal response (EC50) of under 1 nM. In addition, the 50% inhibitory concentration (IC50) in the experiment on VCaP cells lay in the range of 0.1 to 1 nM.

In the case of `COc1cc(OC2C(C)(C)C(NC(=O)c3ccc(N4CCC(C5CCC(n6cc(-c7cc8cccc(-c9nn(C%10CCOCC%10)c%10c9CN(C(C)=O)CC%10)c8cn7)cn6)CC5)CC4)cc3)C2(C)C)ccc1C#N` (stereo not shown) [Compound 271, 4-[4-[4-[4-[8-(5-acetyl-1-tetrahydropyran-4-yl-6,7-dihydro-4H-pyrazolo[4,3-c]pyridin-3-yl)-3-isoquinolyl]pyrazol-1-yl]cyclohexyl]-1-piperidyl]-N-[3-(4-cyano-3-methoxy-phenoxy)-2,2,4,4-tetramethylcyclobutyl]benzamide], the concentration for a half-maximal effect (EC50) in the experiment on AR / CBP ternary complex is under 1 nM. In the experiment with VCaP cells, the IC50 lay in the range of 0.1 to 1 nM.

For the molecule `COc1cc(OC2C(C)(C)C(NC(=O)c3ccc(N4CCC(C(=O)N5CCC(n6nc(-c7cccc8cc(C9CC9)ncc78)c7c6CCN(C(C)=O)C7)CC5)CC4)cc3)C2(C)C)ccc1C#N` (stereo not shown) [Compound 256, 4-[4-[4-[5-acetyl-3-(3-cyclopropyl-8-isoquinolyl)-6,7-dihydro-4H-pyrazolo[4,3-c]pyridin-1-yl]piperidine-1-carbonyl]-1-piperidyl]-N-[3-(4-cyano-3-methoxy-phenoxy)-2,2,4,4-tetramethyl-cyclobutyl]benzamide], the 50% effective concentration (EC50) in the experiment with AR / CBP ternary complex was under 1 nM. In addition, in the experiment on VCaP cells, the IC50 is 0.1 to 1 nM.

On to `CC(=O)N1CCc2c(c(-c3cccc4cc(-c5cnn(CC6CC7(C6)CN(c6ncc(C(=O)NC8C(C)(C)C(Oc9ccc(C#N)c(Cl)c9)C8(C)C)cn6)C7)c5)ncc34)nn2C)C1` (stereo not shown) [Compound 224, 2-[6-[[4-[8-(5-acetyl-1-methyl-6,7-dihydro-4H-pyrazolo[4,3-c]pyridin-3-yl)-3-isoquinolyl]pyrazol-1-yl]methyl]-2-azaspiro[3.3]heptan-2-yl]-N-[3-(3-chloro-4-cyano-phenoxy)-2,2,4,4-tetramethyl-cyclobutyl]pyrimidine-5-carboxamide], for which the EC50 with AR / CBP ternary complex was under 1 nM. Moreover, the half-inhibitory concentration (IC50) in the experiment with VCaP cells is 0.1 to 1 nM.

In the experiment with AR / CBP ternary complex, `C[C@@H]1CC(=O)Nc2cccc(-c3ccc4c(c3)c(-c3cnn(C)c3)nn4CCN(C)c3ncc(C(=O)NC4C(C)(C)C(Oc5ccc(C#N)c(Cl)c5)C4(C)C)cn3)c2N1` (stereo partly drawn) [Compound 48, N-[3-(3-chloro-4-cyano-phenoxy)-2,2,4,4-tetramethyl-cyclobutyl]-2-[methyl-[2-[5-[(4R)-4-methyl-2-oxo-1,3,4,5-tetrahydro-1,5-benzodiazepin-6-yl]-3-(1-methylpyrazol-4-yl)indazol-1-yl]ethyl]amino]pyrimidine-5-carboxamide] registered an EC50 of over 100 nM. In addition, the half-inhibitory concentration (IC50) in the experiment on VCaP cells lay within 1 to 100 nM.

On to `COc1cc(OC2C(C)(C)C(NC(=O)c3ccc(N4CC(C)C(CN5CCC(n6nc(N7CCCc8cc(C#N)c(C(F)F)cc87)c7c6CCN(C(C)=O)C7)CC5)C(C)C4)cc3)C2(C)C)ccc1C#N` (stereo not shown) [Compound 459, 4-[4-[[4-[5-acetyl-3-[6-cyano-7-(difluoromethyl)-3,4-dihydro-2H-quinolin-1-yl]-6,7-dihydro-4H-pyrazolo[4,3-c]pyridin-1-yl]-1-piperidyl]methyl]-3,5-dimethyl-1-piperidyl]-N-[3-(4-cyano-3-methoxy-phenoxy)-2,2,4,4-tetramethyl-cyclobutyl]benzamide], for which the EC50 in the experiment on AR / CBP ternary complex is under 1 nM. The same molecule came in with an IC50 in the experiment with VCaP cells of 0.1 to 1 nM.

`CC(=O)N1CCc2c(c(N3CCCc4cc(-c5cnn(C)c5)c(C(F)F)cc43)nn2C2CCN(C3CCC4(CC3)CC(Oc3ncc(C(=O)NC5C(C)(C)C(Oc6ccc(C#N)c(Cl)c6)C5(C)C)cn3)C4)CC2)C1` (stereo not shown) [Compound 383, 2-[7-[4-[5-acetyl-3-[7-(difluoromethyl)-6-(1-methylpyrazol-4-yl)-3,4-dihydro-2H-quinolin-1-yl]-6,7-dihydro-4H-pyrazolo[4,3-c]pyridin-1-yl]-1-piperidyl]spiro[3.5]nonan-2-yl]oxy-N-[3-(3-chloro-4-cyano-phenoxy)-2,2,4,4-tetramethyl-cyclobutyl]pyrimidine-5-carboxamide] gave an EC50 in the experiment with AR / CBP ternary complex of under 1 nM. Moreover, the IC50 with VCaP cells lay in the range of 0.1 to 1 nM.

For the molecule `COc1cc(OC2C(C)(C)C(NC(=O)c3ccc(N4CC5(CCC(N6CCC(n7nc(N8CCCc9cc(-c%10cnn(C)c%10)c(C)cc98)c8c7CCN(C(C)=O)C8)CC6)CC5)C4)cc3)C2(C)C)ccc1C#N` (stereo not shown) [Compound 449, 4-[7-[4-[5-acetyl-3-[7-methyl-6-(1-methylpyrazol-4-yl)-3,4-dihydro-2H-quinolin-1-yl]-6,7-dihydro-4H-pyrazolo[4,3-c]pyridin-1-yl]-1-piperidyl]-2-azaspiro[3.5]nonan-2-yl]-N-[3-(4-cyano-3-methoxy-phenoxy)-2,2,4,4-tetramethyl-cyclobutyl]benzamide], the EC50 with AR / CBP ternary complex is under 1 nM. Further, in the experiment with VCaP cells, the half-inhibitory concentration (IC50) was 0.1 to 1 nM.
